# Legend:
# [1] = target: T1, human Drp1 isoform 3 (Homo sapiens, UniProt O00429); experiment: Drp1 GTPase activity, colorimetric malachite green assay; assay type: biochemical
# T1 construct: His tag; made in house; host or cells: E. coli Rosetta (DE3), pET21b vector
# Experimental: The GTPase activity of Drp1, which is required for the latter to mediate mitochondrial fission, was examined using the colorimetric GTPase assay kit (Innova Biosciences, Cambridge, UK) according to the manufacturer’s instructions. Compounds were diluted in DMSO (all with a final concentration of 0.1% DMSO). Recombinant human Drp1 protein isoform-3 (final concentration 0.25 ng/µL) was diluted in assay buffer containing 50 mM Tris HCl (pH 7.5) and 2.5 mM MgCl2, followed by incubation with compounds for 15 min at 37 °C in a 96 well plate. 0.5 mM GTP, diluted in assay buffer, was then added into the mixture followed by incubation at 37 °C for 30 min.
# Upon binding to Drp1, GTP is hydrolysed into GDP and free phosphate (Pi)[24]. Therefore, the degree of GTPase inhibition was assessed by measuring the concentration of Pi released into the assay buffer, which is detected by a malachite green-based dye. The intensity of Pi-dye complex was assessed by measuring the light absorbance at 635 nm wavelength using a microplate reader (BenchMark Plus, MS, USA). Absorbance of each experimental group was normalised to the vehicle control (DMSO).
# [2] = target: T1, human Drp1 isoform 3; experiment: Microscale thermophoresis (MST) binding; details: human Drp1 isoform 3, 5% DMSO
# Experimental: The recombinant human Drp1 protein (His-tagged human Drp1 isoform 3, kindly provided by Professor Michael Ryan, Monash University, Australia) was generated as described previously. Briefly, cDNA for human Drp1 (isoform 3) was cloned into pET21b vector and transformed in Rosetta (DE3) competent cells (Novagen, MA, Merck Millipore). Transformed cells were propagated in Luria–Bertani broth and protein expression was initiated by the addition of 0.5 mM isopropyl β-D-1-thiogalactopyranoside. Cells were harvested by centrifugation at 3,500 g for 20 min at 4 °C, and the pellet was re-suspended in lysis buffer containing 50 mM Tris HCl (pH 7.3), 500 mM NaCl, 50 mM imidazole, 2.5 mM β-mercaptoethanol, 0.01 mM LEUPEP, 0.1 mM AEBSF and 1 mM benzaminidium chloride. The cells were lysed using a pre-cooled EmulsiFlex-C5 homogenizer (Avestin, Ontario, Canada) on ice and clarified by centrifugation at 17,000 g for 30 min. The clarified cell lysate was loaded onto a 5 mL Nickel Chelating Sepharose Fast Flow column (GE Healthcare, Buckinghamshire, UK) and Drp1 protein was eluted with wash buffer containing 50 mM Tris–HCl (pH 7.6), 150 mM NaCl, 2.5 mM β-mercaptoethanol and 400 mM imidazole. […]
# Compound binding was assessed in against the human Drp1 isoform-3 protein using MST Monolith NT.115 instrument (NanoTemper Technologies, Mȕnchen, Germany). […]
# [3] = Dynamic light scattering (DLS) compound aggregation threshold; assay type: physicochemical
# Experimental: Identification of compound aggregation threshold was performed using DLS Zetasizer Nano ZS (Malvern Pananalytical, Worcestershire, UK). 100 µL of samples were measured in low-volume plastic micro cuvettes (BrandTech Scientific, CT, USA) at 25 °C using default size measurement settings. […] Mdivi-1 and DRP1i27 were serially diluted three-fold from 500 µM until the volume distribution of particle size was similar to that of the DMSO control. To specifically determine aggregation threshold, further dilution was carried out between concentrations where aggregation was first observed.
# [4] = target: human Drp1; set-up: method as in PMID 28350990; details: read-out: inhibitory constant (Ki), GTPase activity of human Drp1; cited from earlier work
# [5] = target: T1, human Drp1 isoform 3; experiment: Surface plasmon resonance (SPR) binding; details: concentrations as high as 100 µM
# Experimental: The recombinant human Drp1 protein (His-tagged human Drp1 isoform 3, kindly provided by Professor Michael Ryan, Monash University, Australia) was generated as described previously. Briefly, cDNA for human Drp1 (isoform 3) was cloned into pET21b vector and transformed in Rosetta (DE3) competent cells (Novagen, MA, Merck Millipore). Transformed cells were propagated in Luria–Bertani broth and protein expression was initiated by the addition of 0.5 mM isopropyl β-D-1-thiogalactopyranoside. […]
# All SPR experiments were performed on a Biacore T200 instrument (GE Healthcare Life Sciences, Uppsala, Sweden) at 25 °C in the presence of HEPES buffered saline containing 20 mM phosphate (pH 7.5), 137 mM NaCl, 2.7 mM KCl and 0.05% Tween-20 (HBS + P). […] Sensor surface was activated with 1:1 mixture of 0.4 M EDC and 0.1 M NHS for 7 min, followed by incremental injections of the protein to reach ~ 8000 RU (flow rate 10 μL/minute) for a calculated maximum analyte binding capacity (Rmax) of 30–50 RU. […]
# Compounds were dissolved in 100% dimethyl sulfoxide (DMSO) and then added to HBS + P at a final DMSO concentration of 2%. […] SPR results were analysed using the Biacore T200 Evaluation Software v.1.
# [6] = system: human iPSC-derived cardiomyocytes; experiment: Doxorubicin-induced cardiomyocyte injury, LDH release; assay type: cell-based; details: doxorubicin 5 µM alone, 2 days
# Experimental: Cardiomyocytes were derived from human induced pluripotent stem cells (iPSCs, CERA007c6 cell line) as previously described with modifications[26],[27]. Briefly, human iPSCs were seeded onto Matrigel (Corning) coated plates at a density of 1.25 × 10^5 cells/cm^2 in TeSR-E8 medium supplemented with 10 μM Y−27632 (Abcam). After 48 h (cells ~ 90% confluent) (day 0), medium was replaced with RPMI-1640 basal medium (Thermo Fisher Scientific) containing B-27 without insulin supplement (Thermo Fisher Scientific), growth factor reduced Matrigel (1:60 dilution) and 10 μM CHIR99021 (Cayman Chemical). At day 1, medium was replaced with RPMI 1640 basal medium containing B-27 without insulin supplement. […]
# Enriched cardiomyocytes were replated onto Matrigel-coated 48-well plates at a cell density of 5 × 10^4 cells/cm^2 for 2 days. […] LDH levels in the conditioned media were assessed using a colorimetric CyQUANT LDH Cytotoxicity Assay Kit (Thermo Fisher Scientific) according to manufacturer’s protocol. […] Following the incubation at room temperature for 30 min in the dark, 50 μL of Stop Solution was added and absorbance was measured at 490 nm and 680 nm on a microplate spectrophotometer (Bio-Rad). All readings were then corrected for the background signal from the culture media and expressed as fold change.
# T1 sequence (O00429 1-699 isoform O00429-4): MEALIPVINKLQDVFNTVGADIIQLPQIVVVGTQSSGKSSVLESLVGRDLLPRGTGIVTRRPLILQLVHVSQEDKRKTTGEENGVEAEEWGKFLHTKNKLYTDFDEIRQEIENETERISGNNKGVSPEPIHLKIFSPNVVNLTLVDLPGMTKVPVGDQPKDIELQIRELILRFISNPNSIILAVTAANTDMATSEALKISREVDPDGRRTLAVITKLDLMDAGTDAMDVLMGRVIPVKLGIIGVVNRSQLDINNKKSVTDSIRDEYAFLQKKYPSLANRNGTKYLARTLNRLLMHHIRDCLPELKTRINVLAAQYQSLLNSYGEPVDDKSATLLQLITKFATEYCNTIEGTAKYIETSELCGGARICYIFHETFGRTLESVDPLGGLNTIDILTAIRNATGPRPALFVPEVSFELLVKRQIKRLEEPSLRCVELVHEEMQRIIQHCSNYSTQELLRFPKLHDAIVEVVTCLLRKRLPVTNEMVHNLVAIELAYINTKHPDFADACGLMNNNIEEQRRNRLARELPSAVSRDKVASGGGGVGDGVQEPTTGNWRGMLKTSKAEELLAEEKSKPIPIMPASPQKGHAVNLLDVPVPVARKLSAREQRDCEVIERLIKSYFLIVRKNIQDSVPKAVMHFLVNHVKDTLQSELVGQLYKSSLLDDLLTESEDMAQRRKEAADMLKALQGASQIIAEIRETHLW
SMILES,inhibition of GTPase activity of human Drp1 ([1]; 5 µM),inhibition of GTPase activity of human Drp1 ([1]; increasing concentration above 5 µM),Kd [2] [µM],aggregation threshold ([3]; 2% DMSO with 0.05% Tween-20) [µM],aggregation threshold ([3]; 5% DMSO with 0.05% Tween-20) [µM],"aggregation threshold ([3]; PBS, 2% DMSO) [µM]","aggregation threshold ([3]; PBS, 5% DMSO) [µM]",concentrations at which the compound aggregated ([3]; assay buffer containing DMSO and Tween-20),Ki [4] [µM],SPR binding response [5],LDH release [6] [fold change]
COc1cc(-n2c(=S)[nH]c3ccccc3c2=O)c(Cl)cc1Cl [Mdivi-1],significant inhibition,not observed,0.23,70,18.5,20,35,above 18.5 µM,> 1200,no binding response,–
"COc1cccc2c1C(=O)c1c(O)c3c(c(O)c1C2=O)C[C@@](O)(C(=O)CO)C[C@@H]3O[C@H]1C[C@H](N)[C@H](O)[C@H](C)O1 [doxorubicin, reference compound]",–,–,–,–,–,–,–,–,–,–,3.41 ± 0.11

# Source: PMC9747717, “A novel small molecule inhibitor of human Drp1” (Scientific Reports, 2022)
